In patent US20230159509A1 (Amathus Therapeutics, Inc., priority 2020, published 2023):

Target: T1, TRAP1 enzyme (Homo sapiens, UniProt Q12931)
T1 construct: 150 nM Trap1 enzyme was incubated with various concentrations of the test compound
T1 sequence (Q12931 60-704): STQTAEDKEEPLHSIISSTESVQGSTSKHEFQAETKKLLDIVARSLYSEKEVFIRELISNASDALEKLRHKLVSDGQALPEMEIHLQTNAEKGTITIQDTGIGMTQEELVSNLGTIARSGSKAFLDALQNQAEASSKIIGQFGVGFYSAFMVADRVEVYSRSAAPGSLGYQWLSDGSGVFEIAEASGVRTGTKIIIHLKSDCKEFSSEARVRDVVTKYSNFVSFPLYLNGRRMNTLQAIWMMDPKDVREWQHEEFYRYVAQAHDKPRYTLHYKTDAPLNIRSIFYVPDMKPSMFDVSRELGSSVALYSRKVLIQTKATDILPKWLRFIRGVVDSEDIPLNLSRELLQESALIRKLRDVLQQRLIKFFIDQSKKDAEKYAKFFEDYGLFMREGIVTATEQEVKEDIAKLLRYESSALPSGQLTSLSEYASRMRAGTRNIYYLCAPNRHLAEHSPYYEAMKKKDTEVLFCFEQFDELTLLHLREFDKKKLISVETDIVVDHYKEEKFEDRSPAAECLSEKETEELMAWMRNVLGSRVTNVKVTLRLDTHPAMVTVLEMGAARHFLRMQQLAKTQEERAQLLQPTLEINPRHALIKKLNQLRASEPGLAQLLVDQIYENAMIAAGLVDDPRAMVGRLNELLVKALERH
Test: ADP Glo assay of TRAP1 ATPase activity
Format: biochemical
Conditions: for activation at 50 µM: 1 h, compound concentration 50 μM, read-out: ADP-Glo Percent Activation at 50 μM; for EC50: concentration for half maximal activation, read-out: ADP GLO DRC: GeoMean EC50; for Emax: maximal percent activation, read-out: ADP GLO DRC: Mean Emax
Outline: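 Compound (0.79–100 μM) was preincubated 30 min at 37° C with 150 nM TRAP1 in 25 mM Pipes pH 7.5, 40 mM KCl, 0.05 mM MgCl2. Reaction started with 20 μM ATP, 60 min at 37° C. ADP measured by luminescence against a standard curve; activation fitted sigmoidally for EC50 and Emax.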

| activation at 50 µM | EC50 | Emax | SMILES |
| --- | --- | --- | --- |
| 120 to 150% |  |  | COc1ncc(NC(=O)c2ccon2)cc1S(=O)(=O)Nc1c(C)cccc1C [compound 2741] |
|  | 10 to 20 µM | 160 to 199% | COc1ncc(NC(=O)c2ncccc2C(=O)c2ccccc2)cc1S(=O)(=O)Nc1ccc(Cl)cc1 [compound 1195, 3-benzoyl-N-(5-(N-(4-chlorophenyl)sulfamoyl)-6-methoxypyridin-3-yl)picolinamide] |
|  | 10 to 20 µM | 160 to 199% | COc1ncc(NC(=O)c2cc(-n3ccnc3)ccn2)cc1S(=O)(=O)Nc1ccc(Cl)cc1 [compound 1203, N-(5-(N-(4-chlorophenyl)sulfamoyl)-6-methoxypyridin-3-yl)-4-(1H-imidazol-1-yl)picolinamide] |
| 120 to 150% |  |  | COc1ncc(NC(=O)c2ccc3c(c2)NC(=O)CC3)cc1S(=O)(=O)Nc1c(C)cccc1C [compound 2677] |
|  | < 10 µM | 119 to 159% | COc1ncc(NC(=O)c2csc(-c3ccccc3)n2)cc1S(=O)(=O)Nc1c(C)cc(F)cc1C [compound 1389, N-(5-(N-(4-fluoro-2,6-dimethylphenyl)sulfamoyl)-6-methoxypyridin-3-yl)-2-phenylthiazole-4-carboxamide] |
|  | 10 to 20 µM | 200 to 300% | O=C(Nc1cc(S(=O)(=O)Nc2ccc(Cl)cc2)ccn1)c1cnc(-c2ccccc2)[nH]1 [compound 1361, N-(4-(N-(4-chlorophenyl)sulfamoyl)pyridin-2-yl)-2-phenyl-1H-imidazole-5-carboxamide] |
| 120 to 150% |  |  | CCn1ccc(C(=O)Nc2cnc(OC)c(S(=O)(=O)Nc3c(C)cccc3C)c2)n1 [compound 2619] |
|  | 10 to 20 µM | 160 to 199% | COc1ncc(NC(=O)c2ncc(-c3ccccc3)o2)cc1S(=O)(=O)Nc1cc(C)n(C(C)C)n1 [compound 1571] |
|  | 20 to 100 µM | 160 to 199% | COc1ncc(NC(=O)c2coc(-c3ccccc3)n2)cc1S(=O)(=O)Nc1cccc(C#N)n1 [compound 2157] |
|  | 20 to 100 µM | 160 to 199% | COc1ncc(NC(=O)c2coc(-c3ccccc3)n2)cc1S(=O)(=O)Nc1ncc(Cl)cc1C [compound 1966, N-(5-(N-(5-chloro-3-methylpyridin-2-yl)sulfamoyl)-6-methoxypyridin-3-yl)-2-phenyloxazole-4-carboxamide] |
|  | < 10 µM | 119 to 159% | CCc1cccc(CC)c1NS(=O)(=O)c1cc(NC(=O)c2csc(-c3ccccc3)n2)cnc1OC [compound 1418, N-(5-(N-(2,6-diethylphenyl)sulfamoyl)-6-methoxypyridin-3-yl)-2-phenylthiazole-4-carboxamide] |
| 120 to 150% |  |  | COc1ncc(NC(=O)c2ccc(OC(F)(F)F)cc2)cc1S(=O)(=O)Nc1c(C)cccc1C [compound 2531] |
|  | 20 to 100 µM | > 300% | COc1ncc(NC(=O)c2cnc3n2CCCC3)cc1S(=O)(=O)Nc1c(C)cccc1C [compound 1404, N-(5-(N-(2,6-dimethylphenyl)sulfamoyl)-6-methoxypyridin-3-yl)-5,6,7,8-tetrahydroimidazo[1,2-a]pyridine-3-carboxamide] |
| 120 to 150% |  |  | COc1ncc(NC(=O)c2cn(C)nc2C)cc1S(=O)(=O)Nc1c(C)cccc1C [compound 2628] |
| 181 to 352% |  |  | COc1ccnc(C(=O)Nc2cnc(OC)c(S(=O)(=O)Nc3c(C)cccc3C)c2)c1 [compound 2657] |
| 151 to 180% |  |  | COc1ncc(NC(=O)c2ccc(S(=O)(=O)C(F)F)cc2)cc1S(=O)(=O)Nc1c(C)cccc1C [compound 2640] |
| 151 to 180% |  |  | COc1ncc(NC(=O)c2nn(C)c3c2CCC3)cc1S(=O)(=O)Nc1c(C)cccc1C [compound 2612] |
| 120 to 150% |  |  | COc1ncc(NC(=O)c2ncn(C(C)C)n2)cc1S(=O)(=O)Nc1c(C)cccc1C [compound 2611] |
| 151 to 180% |  |  | CCc1cc(C(=O)Nc2cnc(OC)c(S(=O)(=O)Nc3c(C)cccc3C)c2)n(C)n1 [compound 2600] |
| 120 to 150% |  |  | COc1ncc(NC(=O)c2ncn(C)c2C(F)(F)F)cc1S(=O)(=O)Nc1c(C)cccc1C [compound 2672] |
|  | 20 to 100 µM | 200 to 300% | COc1ncc(NC(=O)c2csc(-c3ccccc3)n2)cc1S(=O)(=O)Nc1sc2c(c1C#N)CCCC2 [compound 2088] |
|  | < 10 µM | 160 to 199% | COc1ncc(NC(=O)c2csc(-c3ccccc3)n2)cc1S(=O)(=O)Nc1c(C)csc1C [compound 1985, N-(5-(N-(2,4-dimethylthiophen-3-yl)sulfamoyl)-6-methoxypyridin-3-yl)-2-phenylthiazole-4-carboxamide] |
|  | < 10 µM | 119 to 159% | CCc1cccc(C)c1NS(=O)(=O)c1cc(NC(=O)c2csc(-c3ccccc3)n2)cnc1OC [compound 1393, N-(5-(N-(2-ethyl-6-methylphenyl)sulfamoyl)-6-methoxypyridin-3-yl)-2-phenylthiazole-4-carboxamide] |
| 120 to 150% |  |  | COc1ncc(NC(=O)c2[nH]cnc2C)cc1S(=O)(=O)Nc1c(C)cccc1C [compound 2731] |

| activation at 50 µM | EC50 | Emax | SMILES |
| --- | --- | --- | --- |
|  | 20 to 100 µM | 160 to 199% | COc1ncc(NC(=O)c2csc(C)n2)cc1S(=O)(=O)Nc1c(C)cccc1C [compound 2501] |
|  | 20 to 100 µM | 119 to 159% | COc1ncc(NC(=O)c2csc(-c3ccccc3)n2)cc1S(=O)(=O)Nc1cc(C)no1 [compound 1784] |
| 151 to 180% |  |  | COc1ncc(NC(=O)c2cc(NC(C)=O)ccc2Cl)cc1S(=O)(=O)Nc1c(C)cccc1C [compound 2669] |
|  | 10 to 20 µM | 160 to 199% | COc1ncc(NC(=O)c2ncc(-c3ccccc3)o2)cc1S(=O)(=O)Nc1cc(C2CCCCC2)no1 [compound 1640] |
|  | < 10 µM | 119 to 159% | COc1ncc(NC(=O)c2coc(-c3ccccc3)n2)cc1S(=O)(=O)Nc1c(C)cccc1F [compound 1485, N-(5-(N-(2-fluoro-6-methylphenyl)sulfamoyl)-6-methoxypyridin-3-yl)-2-phenyloxazole-4-carboxamide] |
| 151 to 180% |  |  | COc1ncc(NC(=O)c2cnn(C3CC3)c2)cc1S(=O)(=O)Nc1c(C)cccc1C [compound 2552] |
| 151 to 180% |  |  | COc1ncc(NC(=O)c2ccc(C(F)(F)F)s2)cc1S(=O)(=O)Nc1c(C)cccc1C [compound 2644] |
|  | 10 to 20 µM | 160 to 199% | COc1ncc(NC(=O)c2ncoc2C(C)C)cc1S(=O)(=O)Nc1ccc(Cl)cc1 [compound 2487] |
|  | 20 to 100 µM | 200 to 300% | COc1ncc(NC(=O)c2csc3c2CN(C)CC3)cc1S(=O)(=O)Nc1c(C)cccc1C [compound 1956, N-(5-(N-(2,6-dimethylphenyl)sulfamoyl)-6-methoxypyridin-3-yl)-5-methyl-4,5,6,7-tetrahydrothieno[3,2-c]pyridine-3-carboxamide] |
| 181 to 352% |  |  | COc1ncc(NC(=O)c2cccc(N3CCN(C)CC3)c2)cc1S(=O)(=O)Nc1c(C)cccc1C [compound 2633] |
|  | 20 to 100 µM | 200 to 300% | COc1ncc(NC(=O)c2csc(-c3ccccc3)n2)cc1S(=O)(=O)Nc1cc(C(F)(F)F)ncc1C [compound 2365] |
| 151 to 180% |  |  | COc1ncc(NC(=O)c2ncn(C)c2C)cc1S(=O)(=O)Nc1c(C)cccc1C [compound 2571] |
| 120 to 150% |  |  | COc1ncc(NC(=O)c2nccn2C)cc1S(=O)(=O)Nc1c(C)cccc1C [compound 2772] |
| 120 to 150% |  |  | COc1ncc(NC(=O)c2ccno2)cc1S(=O)(=O)Nc1c(C)cccc1C [compound 2781] |
|  | 10 to 20 µM | 200 to 300% | COc1ncc(NC(=O)c2csc(-c3cccnc3)n2)cc1S(=O)(=O)Nc1ccc(F)c(F)c1C [compound 2390] |
|  | 20 to 100 µM | 119 to 159% | COc1ncc(NC(=O)c2csc(-c3ccccc3)n2)cc1S(=O)(=O)Nc1c(C#N)cnn1C [compound 1911] |
|  | < 10 µM | 160 to 199% | COc1ncc(NC(=O)c2ncc(-c3ccccc3)o2)cc1S(=O)(=O)Nc1c(C)cccc1C [compound 2470] |
| 181 to 352% |  |  | COc1ncc(NC(=O)c2ccc(N3CCN(C)CC3)c(F)c2)cc1S(=O)(=O)Nc1c(C)cccc1C [compound 2742] |
| 181 to 352% |  |  | COc1ncc(NC(=O)c2ccc(CN3CCOCC3)cc2)cc1S(=O)(=O)Nc1c(C)cccc1C [compound 2570] |
| 120 to 150% |  |  | COc1ncc(NC(=O)c2scnc2C)cc1S(=O)(=O)Nc1c(C)cccc1C [compound 2654] |
| 181 to 352% |  |  | COc1ncc(NC(=O)c2ccc(OC3COC3)cc2)cc1S(=O)(=O)Nc1c(C)cccc1C [compound 2568] |
| 181 to 352% |  |  | COc1ncc(NC(=O)c2ccc(N3CCOCC3)cc2F)cc1S(=O)(=O)Nc1c(C)cccc1C [compound 2590] |
|  | 20 to 100 µM | 200 to 300% | COc1ncc(NC(=O)c2csc(-c3ccccc3)n2)cc1S(=O)(=O)Nc1c(C)cccc1P(C)(C)=O [compound 2506] |
| 151 to 180% |  |  | COc1ncc(NC(=O)c2cnc(C)s2)cc1S(=O)(=O)Nc1c(C)cccc1C [compound 2661] |
